US12377095B2, “Use of ligustrazine nitrone derivatives in treatment and prevention of diabetic complication diseases” (QINGDAO HAILAN PHARMACEUTICALS CO., LTD., priority 2019, dated 2025)

What was measured:
STZ-induced DKD rats [1] = test: HE staining of kidney tissue, STZ-induced SD rat DKD model; type: in vivo
Method: (§1) Before the injection, the rats were fasted for 12 hours without water. After weighing, the rats were injected with 55 mg/kg STZ intraperitoneally (STZ needs to be injected quickly, and the injection was completed within 10 minutes), and then returned to the cage to ensure that the rats had sufficient drinking water for 24 hours. Rats were injected with an equal volume of citrate buffer (pH 4.5). After STZ injection for 3 weeks, blood was collected from the tail vein, and blood glucose ≥16.7 mmol/L was used as the criteria for the standard of the rats.
(§2) The route of administration is intragastric administration. TBN was administered twice a day (fixed at 9:00-10:00 am and 3:00-4:00 pm), and Losartan was administered once a day (fixed at 9:00-10:00 am) continuously for 6 weeks.
At the end of the experiment, kidney tissues were quickly separated, fixed with 4% paraformaldehyde and embedded in paraffin, serially sliced, 5 μm each, dried at 37° C. for 1 h, and then stained with hematoxylin and eosin (HE). The process is briefly as follows: paraffin sections were taken out of the 65° C. oven and immediately put in xylene to dewax and rehydrated with gradient alcohol, stained with hematoxylin staining solution for 10 minutes, and microscopically controlled alcohol differentiation with 1% hydrochloric acid was performed until the chromatin of the nucleus and the nucleus becomes clear; 1% ammonia water-ethanol solution is blue; 0.5% eosin Y-ethanol solution is stained for 3 min, and finally dehydrated routinely, mounted, and the tissue morphology changes are observed under a light microscope. […] The glomerular volume of rats in the DKD group of the Vehicle group increased, the mesangial area was diffusely widened, the mesangial cells were proliferated, the capillary loops were expanded, the mesangial matrix increased, and the glomerular capillary basement membrane was irregularly thickened. Renal pathological changes such as vacuole deformation, shedding of renal tubular epithelial cells and infiltration of a large number of inflammatory cells (FIG. 9A).

STZ-induced DKD rats [2] = test: Retinopathy of STZ-induced DKD rats; type: in vivo, rat; details: DKD rats after treatment, Table 1 (FIG. 5)
Method: SD rats (200±10 g) were used as model animals, which were fasted for 12 h before injection. STZ was dissolved in citrate buffer at 1% concentration, and rats were fasted and intraperitoneally injected with 55 mg/kg STZ and placed in the cage, the rats being ensured with adequate water intake for 24 h. STZ injections need to be fast and complete within 10 minutes of injection. The normal control group was injected with an equal volume of pH 4.5 citric acid-sodium citrate buffer. The state of the animals (multiple drinking and polyuria) was observed. After 3 weeks of STZ injection, blood was collected from the tail vein, and fasting blood glucose ≥16.7 mmol/L was measured as the standard for diabetic nephropathy in rats.
DKD rats were randomly assigned to 6 groups and given with different drugs. After 6 weeks of administration, the experiment was terminated and the protective effect of the drug on DKD rats was observed.
During the experiment, the retinopathy of rats was observed during daily administration, and the dates of retinopathy in different groups of rats were recorded.

STZ-induced DKD rats [3] = test: PAS staining, glomerular sclerosis index, STZ-induced DKD rats; type: in vivo, rat; details: all doses of TBN (10, 30, 60 mg/kg twice/day); Losartan 10 mg/kg once/day; 6 weeks; P<0.001 vs Vehicle
Method: as §1, §2
At the end of the experiment, kidney tissues were quickly separated, fixed with 4% paraformaldehyde and embedded in paraffin, serially sliced, 5 μm each, dried at 37° C. for 1 h, and then stained with PAS. The process is briefly as follows: paraffin sections are taken out of the 65° C. oven and immediately placed in xylene for deparaffinization and gradient alcohol rehydration, followed by periodic acid treatment for 5 min and Schiff treatment for 10 min, and then differentiation is performed with differentiation solution for 10 s. […]

STZ-induced SHR rats [4] = test: Serum iron ion content in STZ-induced SHR rats; type: in vivo, rat; details: TBN group (T60), 60 mg/kg
Method: (§3) 6 W-age SHR rats were abstained from food but not water for 12 h before injection, and then intraperitoneally injected with 55 mg/kg STZ after weighing (STZ required for fast injection, to be completed within 10 min), then put back to the cage to ensure that rat has sufficient drinking water in the period of 24 h, and the rats of normal control group were injected with citric acid buffer (pH 4.5) in the same volume. After 3 weeks of STZ injection, retinal venous blood was collected, and blood glucose ≥16.7 mmol/L was used as a molding standard, where the model of SHR rats that meet the above criteria is considered successful.
(§4) The route of administration is intragastrical, TBN is administered twice a day (fixed at 9:00-10:00 am and 3:00-4:00 pm), and Losartan is administered once a day (fixed at 9:00-10:00 am), continuously for 6 weeks.
At the end of the experiment, after rats were anesthetized, blood was taken from the rear abdominal aortic pulse, allowed to stand for 1 h, centrifuged at 3000 rmp centrifuged for 10 min to collect supernatant, and the iron ion content was measured by using an automated biochemical device and the level of red cells in serum was detected by using kits.

STZ-induced DKD rats [5] = test: Serum iron content of STZ-induced DKD rats; type: in vivo, rat
Method: as §1, §2
At the end of the experiment, after rats were anesthetized, blood was taken from the abdominal aorta. After standing for 1 hour, the rats were centrifuged at 3000 rpm for 10 minutes and stored in aliquots at −80° C. An automatic biochemical analyzer was used to detect the content of iron ions in the serum.

STZ-induced SHR rats [6] = test: Body weight of STZ-induced SHR rats; type: in vivo, rat; details: 60 mg/kg twice/day, 6 weeks
Method: as §3, §4
The general situation and weight changes are observed after the establishment of the rat model, and the general situation includes the activity of rats, mental state, hair color, diet, drinking water and urine volume, etc., and water consumption and feed weights were recorded each week.

STZ-induced SHR rats [7] = test: Serum EPO content in STZ-induced SHR rats; type: in vivo, rat; details: TBN group (T60), 60 mg/kg
STZ-induced DKD rats [8] = test: Serum erythropoietin (ELISA) in STZ-induced DKD rats; type: in vivo, rat
Method: as §1, §2
At the end of the experiment, after rats were anesthetized, blood was taken from the abdominal aorta, allowed to stand for 1 hour, the supernatant was collected by centrifugation at 3000 rmp for 10 min. The serum erythropoietin level was measured according to the kit operating instructions. […] In the measurement, the blank hole was adjusted to zero, and the absorbance (OD value) of each hole was measured in sequence with a wavelength of 450 nm. […]

## Cc1nc(C)c(/C=[N+](\[O-])C(C)(C)C)nc1C [TBN]
STZ-induced DKD rats [1]; 60 mg/kg i.g. twice/day, 6 weeks
  renal pathological changes (HE): improved the most
STZ-induced DKD rats [1]; each dose group of TBN (10, 30, 60 mg/kg i.g. twice/day, 6 weeks)
  renal pathological changes (HE): improved
STZ-induced DKD rats [2]
  number of retinopathy: reduced
  time when retinopathy occurred: relatively delayed
STZ-induced DKD rats [3]
  glomerular sclerosis index: significantly reduce
STZ-induced SHR rats [4]
  content of iron ions in serum vs model group: significantly increased
STZ-induced DKD rats [5]; TBN high dose group, P<0.05 vs Vehicle
  increase in serum iron content: the most significant
STZ-induced DKD rats [5]; each administration group of TBN (10, 30, 60 mg/kg), dose-dependent
  serum iron content: increased
STZ-induced SHR rats [6]
  body weight vs SHR-STZ group: increased significantly
STZ-induced SHR rats [7]
  content of EPO in serum vs model group: significantly increased
STZ-induced DKD rats [8]; 30 mg/kg and 60 mg/kg, P<0.05
  serum EPO content: increased EPO content with significant statistical difference
STZ-induced DKD rats [8]; TBN dose groups (10, 30, 60 mg/kg) vs vehicle, to varying degrees
  serum EPO content: increased
